{
  "source": "paper PMC12391581",
  "about": "(Antiviral Research, 2025)",
  "key": {"[1]": {"test_system": "neuraminidase (NA) of A(H1N1)pdm09 viruses", "assay_type": "biochemical, influenza A(H1N1)pdm09 virus"}, "[2]": {"test_system": "neuraminidase (NA) of B/Victoria-lineage viruses", "assay_type": "biochemical, influenza B/Victoria-lineage virus"}, "[3]": {"test_system": "neuraminidase (NA) of A(H3N2) viruses", "assay_type": "biochemical, influenza A(H3N2) virus"}, "A(H3N2) viruses [4]": {"test_system": "A(H3N2) viruses", "assay_type": "cell-based, influenza A(H3N2) virus"}, "A(H3N2) viruses [5]": {"test_system": "A(H3N2) viruses", "assay_type": "cell-based, influenza A(H3N2) virus", "remark": "listed apart in the source"}, "A(H1N1)pdm09 viruses": {"test_system": "A(H1N1)pdm09 viruses", "assay_type": "cell-based, influenza A(H1N1)pdm09 virus"}},
  "note": "Where “and” joins values, the source holds several entries; their conditions need not be identical. Identical values can stand only once. Marks after values point to notes of the source that are not given here.",
  "data": [
    {"smiles": "CCC(CC)[C@H](NC(C)=O)[C@@H]1[C@H](O)[C@@H](C(=O)O)C[C@H]1N=C(N)N", "note": "[Peramivir, peramivir]", "values": [
      {"measurement": "NAI inhibition phenotype (NI/RI/HRI)", "setting": "[1]", "value": "HRI (key: normal inhibition (NI) is a <10-fold increase in the NAI IC50; RI is a 10- to 100-fold increase; HRI is a >100-fold increase)"},
      {"measurement": "Fold-change in IC50", "setting": "[2]", "value": 158, "unit": "fold"},
      {"measurement": "IC50 fold-change compared to reference median IC50 values", "setting": "[2]", "value": 158, "unit": "fold"},
      {"measurement": "NAI inhibition phenotype (NI/RI/HRI)", "setting": "[2]", "value": "HRI (key: normal inhibition (NI) is a <5-fold increase in the NAI IC50; RI is a 5- to 50-fold increase; HRI is a >50-fold increase)"}
    ]},
    {"smiles": "CCOC(=O)C1=C[C@@H](OC(CC)CC)[C@H](NC(C)=O)[C@@H](N)C1", "note": "[Oseltamivir, oseltamivir]", "values": [
      {"measurement": "Fold-change in IC50", "setting": "[3]", "value": 1.86, "unit": "fold"},
      {"measurement": "IC50 fold-change compared to reference median IC50 values", "setting": "[3]", "value": 1.86, "unit": "fold"}
    ]},
    {"smiles": "COC(=O)OCOc1c2n(ccc1=O)N([C@@H]1c3ccccc3SCc3c1ccc(F)c3F)[C@@H]1COCCN1C2=O", "note": "[Baloxavir, baloxavir marboxil]", "values": [
      {"measurement": "HINT fold-change compared to PA-sequence matched virus", "setting": "A(H3N2) viruses [4]", "value": 4.4, "unit": "fold"},
      {"measurement": "IRINA fold-change compared to PA-sequence matched virus", "setting": "A(H3N2) viruses [5]", "value": 4.8, "unit": "fold"},
      {"measurement": "EC50 fold-change compared to reference median EC50 values", "setting": "A(H1N1)pdm09 viruses", "value": "2.72 fold and 2.72 ^e fold"},
      {"measurement": "Fold change in EC50", "setting": "A(H1N1)pdm09 viruses", "value": "2.72^d fold"},
      {"measurement": "baloxavir susceptibility phenotype", "setting": "A(H1N1)pdm09 viruses", "value": "RS (key: RS to baloxavir is provisionally defined as >3-fold change in EC50 of a test virus compared to the subtype/lineage-specific median EC50 values)"}
    ]},
    {"smiles": "CC(=O)N[C@H]1[C@H]([C@H](O)[C@H](O)CO)OC(C(=O)O)=C[C@@H]1N=C(N)N", "note": "[Zanamivir, zanamivir]", "values": [
      {"measurement": "Fold-change in IC50", "setting": "[3]", "value": 10.16, "unit": "fold"},
      {"measurement": "IC50 fold-change compared to reference median IC50 values", "setting": "[3]", "value": 10.16, "unit": "fold"},
      {"measurement": "NAI inhibition phenotype (NI/RI/HRI)", "setting": "[3]", "value": "RI (key: normal inhibition (NI) is a <10-fold increase in the NAI IC50; RI is a 10- to 100-fold increase; HRI is a >100-fold increase)"},
      {"measurement": "IC50 fold-change (borderline RI)", "setting": "[2]", "value": "5.76- to 6.25 fold"}
    ]},
    {"smiles": "[H]/N=C(\\N)N[C@H]1C=C(C(=O)O)O[C@@H]([C@H](OC)[C@H](O)CO)[C@@H]1NC(C)=O", "note": "[Laninamivir, laninamivir]", "values": [
      {"measurement": "Fold-change in IC50", "setting": "[2]", "value": 0.91, "unit": "fold"},
      {"measurement": "IC50 fold-change compared to reference median IC50 values", "setting": "[2]", "value": 0.91, "unit": "fold"}
    ]}
  ]
}
